Measured values: patent US20030148954A1, “Agents and methods for modulating activator protein-1-mediated cellular processes” (Wisconsin Alumni Research Foundation, priority 2001, published 2003)

How the values were obtained:
Assay type in all cases: cell-based, human
[1] = test system: CSL (CBF1); assay: CSL-dependent (p4×CBF1luc) luciferase reporter, transient transfection of K562 cells
From the text: Plasmids—The pBabe-NIC-1 (pNIC-1) expression vector encoding constitutively active Notch-1 (NIC-1) was described previously (36,37,51). This vector was derived from the pBabe-puro retroviral vector and includes a cDNA sequence encoding amino acids 1759-2556 of human Notch-1 with a Myc tag fused to its carboxyl terminus. Human NIC-1 deletion mutants were generated by PCR using a full-length human Notch-1 expression vector as the template. The Notch-dependent reporter plasmid containing four CBF1 binding sites and an simian virus 40 promoter fused to luciferase (p4×CBF1luc) was described previously (52). The AP-1 reporter plasmid (p1×AP1luc) containing a collagenase promoter fragment (−73/+67) with a single AP-1 binding site in the luciferase reporter vector pGL2-basic (Promega) was described previously (53). The NF-κB reporter plasmid (p3×κBluc) containing three NF-κB binding sites and a minimal promoter fused to luciferase was a kind gift of Dr. Shigeki Miyamoto (University of Wisconsin Medical School). […]
(§1) For each transfection, cells were incubated for 26 h after transfection and then treated with TPA (final concentration: 5 nM) or the vehicle (DMSO). […] Luciferase activity was normalized by the protein content of the lysates, determined by Bradford assay using γ-globulin as a standard.

[2] = test system: CMV enhancer; assay: pCMVβgal β-galactosidase reporter, transient transfection of K562 cells
Protocol: Transient Transfections—K562 cells (5×10^5) were collected by centrifugation at 240×g for 8 min at 4° C. and resuspended in 4 ml of complete IMEM. Plasmid DNAs (1 μg of reporter and 2 μg of effector) were added to 150 μl of IMEM, incubated with Superfect (4 μl/1 μg DNA; Qiagen) for 10 min at room temperature and then added to cells.
as §1

[3] = test system: c-Jun; assay: Western blot of c-Jun protein and c-Jun phosphorylation
Protocol: (§2) Stable Transfection—K562 cells were stably transfected by electroporation with a Bio-Rad Gene pulser electroporator. Cells (5×10^6) were washed with ice-cold PBS, resuspended in 0.5 ml of ice-cold PBS, mixed with 5 μg linearized plasmid DNA, and subjected to electroporation (960 microfarad; 220 V) in a 0.4 cm-wide electroporation cuvette (BTX). pBabe and pNIC-1 were linearized with NotI. Cells were then added to 20 ml of complete IMEM, grown for 48 h, and diluted in complete IMEM containing 1.5 μg/ml puromycin (pools of K562-Babe and K562-NIC-1 cells). Stably transfected cells were analyzed for erythroid differentiation as soon as the pools were generated by benzidine staining to reduce the probability of phenotypic changes that may result from prolonged growth.
Cells were washed once with ice-cold PBS, cell pellets were resuspended in 30 μl ice-cold PBS and were immediately boiled in 70 μl SDS sample buffer for 10 min. Proteins (10 μl) were resolved by SDS-PAGE on a 10% acrylamide gel and transferred to Immobilon P membrane (Millipore). After blocking membranes in 5% nonfat dry milk in TBST (10 mM Tris pH 8.0, 150 mM NaCl, 0.3% Tween-20), membranes were incubated with primary antibody (diluted 1:1000 in dry milk/TBST). […] Antigen-antibody complexes were detected with ECL Plus™ (Amersham Life Science) according to manufacturer's instructions.

[4] = test system: c-Fos; assay: Western blot of Fos protein; conditions: K562-NIC-1 versus K562-Babe
Protocol: as §2
To measure the phosphorylation state of components of the MAPK pathway, K562-Babe and K562-NIC-1 cells (1×10^6) were collected after treatment with 5 nM TPA or DMSO for 30 min. Cells were washed once with ice-cold PBS, cell pellets were resuspended in 30 μl ice-cold PBS and were immediately boiled in 70 μl SDS sample buffer for 10 min. Proteins (10 μl) were resolved by SDS-PAGE on a 10% acrylamide gel and transferred to Immobilon P membrane (Millipore). […] Antigen-antibody complexes were detected with ECL Plus™ (Amersham Life Science) according to manufacturer's instructions.

## NIC-1: constitutively active Notch-1 intracellular domain, amino acids 1759-2556 of human Notch-1 with carboxyl-terminal Myc tag, expressed from pBabe-NIC-1
[1]
  activation of CSL-dependent reporter activity: strongly activated
[2]; K562, TPA induced
  increase of TPA induced activity of pCMVβgal: ~2 fold
[2]; K562, basal
  effect on basal activity of pCMVβgal: no effect
[3]; 5 nM TPA for 0, 5, 10, or 20 min
  effect on time-dependent induction of phosphorylation of c-Jun (serine 73) and JunD: no effect
[3]; K562-NIC-1 versus K562-Babe
  effect on c-Jun protein levels: did not affect
[4]
  effect on Fos protein levels: did not affect
